Numbers after ± are expanded uncertainties.
Settings: Liquid, Ebulliometric method (Recirculating still)

Row | vapor or sublimation pressure (407.15 K) | vapor or sublimation pressure (398.57 K) | Structure (SMILES)
1 | 101.33 ± 0.46 kPa |  | CCc1cccs1 [2-ethylthiophene]
2 |  | 101.33 ± 0.46 kPa | CCCCCCCC [octane]
